In patent publication US20020098210A1, “FORMULATIONS AND METHODS FOR REDUCING SKIN IRRITATION” (priority 1997, published 2002):
Read-outs that look alike come from different tables or passages of the source.

Columns and labels:
[1] = system: skin irritation induced by topical irritants (lactic acid, glycolic acid, capryloyl salicylic acid, benzoyl peroxide); test: Human clinical trials of anti-irritant activity (general statements); format: in vivo; conditions: topical application
Protocol: The objective of the clinical trials was to determine whether and to what extent topical formulations of the calcium cation reduced or prevented skin irritation caused by certain severe skin irritants, including particularly lactic acid and glycolic acid (which are hydroxy acids), capryloyl salicylic acid (a β-hydroxy acid ester) and capsaicin (an isolate from cayenne and paprika known for its skin-irritating properties). The trials were conducted in a double blind, randomized, vehicle-controlled manner. Various formulations of the invention were tested in over 460 people.

[2] = system: lactic acid skin irritation; test: Lactic acid irritation trial, pretreatment test (anti-irritant applied 15 minutes prior to irritant); format: in vivo, human; conditions: for Percent Inhibition (average inhibition of cumulative irritation) / Percent Inhibition: pretreatment tests; for Percent Inhibition (average inhibition of cumulative irritation): cation salt 250 mM, lactic acid irritant, average over trials; for Percent Inhibition: representative panels, 250 mM, vehicle Visible Difference; for inhibition of skin irritation (in words): salts in Elizabeth Arden Visible Difference Refining Toner, various amounts
From the text: (§1) The following scaled scores were used for sensory assessment: […]

[3] = system: lactic acid skin irritation; test: Lactic acid irritation trial, time zero test (anti-irritant applied simultaneously with irritant); format: in vivo, human; conditions: time zero tests; for Percent Inhibition (average inhibition of cumulative irritation): cation salt 250 mM, lactic acid irritant, average over trials; for Percent Inhibition: representative panels, 250 mM, vehicle 10% EtOH
From the text: as §1

[4] = system: lactic acid skin irritation
Protocol: Tests were conducted in multiple panels of from 7 to 12 subjects each. Subjects were instructed not to wear any makeup or facial lotions to the clinic the day of testing. The subjects were instructed to wash their face with Ivory bar soap in the clinic prior to application of test solutions.
Lactic acid skin-irritant compositions were formulated in an appropriate vehicle prior to application to the skin of the subjects.
Controls were performed by applying corresponding formulation(s) (pretreatment and/or skin-irritant composition) with an equimolar amount of sodium chloride to a contralateral portion of the subject's skin. Typically, the test materials were applied to the face of the subject.
All test solutions (including controls) were applied in a double blind, randomized fashion using the prepared solutions as previously placed in coded vial designated for use on either the right or left side of the face (or other test area). Solutions were typically applied using a cotton swab (six strokes) or sponge applicator to the face and cheek area extending from the midline of the nose over to the center of the cheek and from the cheek bone down to the jaw line. Application was made first to the right side and then to the left.
Sensory assessment scores were recorded for each treated side of the subject's skin every minute for 15 minutes or until three consecutive scores of “zero” irritation were obtained. The following scaled scores were used for sensory assessment:
Symptom scores were cumulated, separately for the cation-treated and control-treated areas, for each individual and also for the panel as a whole. Individuals not reporting a cumulative score of at least “7” on at least one treatment area were excluded (in a blinded fashion) from further analysis in order to ascertain anti-irritant efficacy with respect to the more severely-susceptible test subjects. From a practical standpoint, scores of “0” and “1” on the above scale would be considered highly desirable for a commercial product because such a response would likely not result in a consumer ceasing to use a product.

Compound	anti-irritant activity (in words) [1]	Percent Inhibition (average inhibition of cumulative irritation) [2] [%]	Percent Inhibition [2] [%]	inhibition of skin irritation (in words) [2]	Percent Inhibition (average inhibition of cumulative irritation) [3] [%]	Percent Inhibition [3] [%]	Percent Inhibition (cumulative irritation inhibition) ([4]; calcium nitrate 31 mM) [%]	Percent Inhibition (cumulative irritation inhibition) ([4]; calcium nitrate 62 mM) [%]	Percent Inhibition (cumulative irritation inhibition) ([4]; calcium nitrate 125 mM) [%]	Percent Inhibition (cumulative irritation inhibition) ([4]; calcium nitrate 250 mM) [%]	Percent Inhibition (cumulative irritation inhibition) ([4]; calcium nitrate 500 mM) [%]	anti-irritant activity (in words) ([1]; listed as calcium(II) (Ca^2+))
CC(=O)[O-].CC(=O)[O-].[Ca+2] [Calcium acetate]	particularly active as anti-irritants	40	30	effective to inhibit skin irritation	60	65	–	–	–	–	–	–
[Ca+2].[Cl-].[Cl-] [Calcium chloride]	particularly active as anti-irritants	35	35	effective to inhibit skin irritation	65	61	–	–	–	–	–	–
O=[N+]([O-])[O-].O=[N+]([O-])[O-].[Ca+2] [Calcium nitrate]	particularly active as anti-irritants	45	44	effective to inhibit skin irritation	90	85	26	52	83	82	67	–
[Ca+2] [calcium cation, calcium(II)]	significant and reproducible anti-irritant effects	–	–	–	–	–	–	–	–	–	–	effective
Calcium gluconate	particularly active as anti-irritants	–	40	–	40	49	–	–	–	–	–	–
